This is an account of results in ChEMBL document CHEMBL5042483, “Discovery and Mechanism of SARS-CoV-2 Main Protease Inhibitors” (J Med Chem, 2022).

A short description of series [1]: Inhibition of GST-tagged SARS-CoV-2 main protease expressed in Escherichia coli BL21 competent cells using DABCYL-Val-Asn-Ser-Thr-Leu-Gln-Ser-Gly-Leu-Arg-Lys-EDANS as substrate measured every 10 mins for 1 hr by FRET assay. Also noted: species or system Severe acute respiratory syndrome coronavirus 2.
The subject of series [2] is SARS-CoV-2. It is filed as functional, organism-based, Vero E6. The conditions noted are these: Severe acute respiratory syndrome coronavirus 2, USA_WA1/2020, Vero C1008.
A short description of series [3]: Inhibition of SARS-CoV-2 main protease expressed in Escherichia coli using MCA-AVLQSGFR-Lys(Dnp)-Lys-NH2 as substrate by FRET assay. Also noted: species or system Severe acute respiratory syndrome coronavirus 2.
Series [4] has as its system SARS-CoV-2. The series can be described thus: microbe, parasite or virus in culture. The conditions noted are these: Severe acute respiratory syndrome coronavirus 2, Vero C1008, 24 h.
The nature of series [5]: Distribution coefficient, logD of compound at pH 7.4 by shake flask method. The conditions noted are these: octanol/water. The format is physicochemical.
Series [6] has as its system Severe acute respiratory syndrome coronavirus 2. Briefly: Reversible covalent inhibition of SARS-CoV-2 main protease expressed in Escherichia coli BL21 competent cells using DABCYL-Val-Asn-Ser-Thr-Leu-Gln-Ser-Gly-Leu-Arg-Lys-EDANS as fluorogenic substrate assessed as reduction in product formation at 1 uM incubated for 30 mins by dilution assay relative to control.
The test system is the same in series [7]. The series can be described thus: Reversible covalent inhibition of SARS-CoV-2 main protease expressed in Escherichia coli BL21 competent cells using DABCYL-Val-Asn-Ser-Thr-Leu-Gln-Ser-Gly-Leu-Arg-Lys-EDANS as fluorogenic substrate assessed as reduction in product formation at 10 uM incubated for 30 mins by dilution assay relative to control.
Series [8] has the same test system. Briefly: Reversible covalent inhibition of SARS-CoV-2 main protease expressed in Escherichia coli BL21 competent cells using DABCYL-Val-Asn-Ser-Thr-Leu-Gln-Ser-Gly-Leu-Arg-Lys-EDANS as fluorogenic substrate assessed as reduction in product formation at 10 uM preincubated for 30 mins in absence of DTT by dilution assay relative to control.
For series [9] the test system is unchanged. The series can be described thus: Reversible covalent inhibition of SARS-CoV-2 main protease expressed in Escherichia coli BL21 competent cells using DABCYL-Val-Asn-Ser-Thr-Leu-Gln-Ser-Gly-Leu-Arg-Lys-EDANS as fluorogenic substrate assessed as reduction in product formation at 1 uM preincubated for 30 mins in presence of DTT by dilution assay relative to control.

Series [10] concerns SARS-CoV-2. Briefly: Antiviral activity against SARS-CoV-2 USA_WA1/2020 infected in human Calu-3 cells assessed as reduction in viral RNA replication pretreated for 1 hr with compound followed by viral infection for 1.5 hrs then followed by washout the cells and re-incubated with compounds for 24 hrs by qRT-PCR method. The conditions noted are these: Severe acute respiratory syndrome coronavirus 2, USA_WA1/2020, Calu-3. The format is functional, organism-based. For orientation: In qPCR the cycle at which signal appears reflects the starting amount.

Series [11] deals with Severe acute respiratory syndrome coronavirus 2. The series can be described thus: Reversible covalent inhibition of SARS-CoV-2 main protease expressed in Escherichia coli BL21 competent cells using DABCYL-Val-Asn-Ser-Thr-Leu-Gln-Ser-Gly-Leu-Arg-Lys-EDANS as fluorogenic substrate assessed as reduction in product formation at 1 to 10 uM preincubated for 30 mins in presence of DTT by dilution assay. The conditions noted are these: dose 1-10 µM.

Series [12] has the same test system. Briefly: Reversible covalent inhibition of SARS-CoV-2 main protease expressed in Escherichia coli BL21 competent cells using DABCYL-Val-Asn-Ser-Thr-Leu-Gln-Ser-Gly-Leu-Arg-Lys-EDANS as fluorogenic substrate assessed as reduction in product formation at 10 uM preincubated for 30 mins in presence of DTT by dilution assay relative to control.
Series [13] shares this test system. The series can be described thus: Competitive inhibition of SARS-CoV-2 main protease assessed as inhibitor concentration dependent Km with constant Vmax at 0.5 to 10 uM using varying concentrations of DABCYL-KTSAVLQ1SGFRKM-E(EDANS)-NH2 as substrate by double reciprocal plot analysis. The conditions noted are these: dose 0.5-10 µM.
Series [14] shares this test system. The series can be described thus: Reversible covalent inhibition of SARS-CoV-2 main protease expressed in Escherichia coli BL21 competent cells using DABCYL-Val-Asn-Ser-Thr-Leu-Gln-Ser-Gly-Leu-Arg-Lys-EDANS as fluorogenic substrate assessed as reduction in product formation at 1 uM preincubated for 30 mins in absence of DTT by dilution assay relative to control.

Series [15] in a line: Toxicity in human iPSC derived lung organoids infected with SARS-CoV-2 USA_WA1/2020 measured after 24 hrs.

Calls of active or inactive are those of the source. The rule behind the calls is not given here.

The term IC50 denotes the concentration at which inhibition is half-maximal. The low end stands for higher potency, the high end for lower potency. Broadly, the EC50 is the concentration that produces a half-maximal response. For the compound `CSc1ccccc1-n1[se]c2ccccc2c1=O`, in series [1], the IC50 was more than 10 µM. In the series with SARS-CoV-2 [2], this compound registered a 50% effective concentration (EC50) of more than 20 µM.

`O=C[C@H](C[C@@H]1CCNC1=O)NC(=O)[C@H](Cc1cccc(F)c1)NC(=O)c1cc2ccccc2[nH]1` showed an IC50 in [3] of 0.04 µM. In the series with SARS-CoV-2 [4], this compound showed an EC50 of 0.72 µM.

In general, logD refers to lipophilicity at a set pH, counting ionised and neutral species. The term inhibition denotes the drop in the measured response relative to a control, in per cent. In series [1], `N#Cc1cccc(-n2[se]c3ccccc3c2=O)c1` had an IC50 of 0.38 µM. In the series on SARS-CoV-2 [2], this compound yielded an EC50 of 2 µM. In series [5], this compound showed a logD of 1.45. Further, the inhibition is 29% in [6], 94% in series [7] and 64% in series [8].

As to `O=c1c2ccccc2[se]n1Cc1ccc(F)cc1`, the IC50 in series [1] stood at 1 µM. In the series on SARS-CoV-2 [2], this compound had a concentration giving a half-maximal response (EC50) of more than 20 µM. The inhibition in series [9] amounted to 53%.

For `CCC(CC)COC(=O)[C@H](C)NP(=O)(OC[C@H]1O[C@@](C#N)(c2ccc3c(N)ncnn23)[C@H](O)[C@@H]1O)Oc1ccccc1` (single isomer, unassigned), the EC50 in the series on SARS-CoV-2 [2] turned out to be 1.8 µM; with SARS-CoV-2 [10] it was 0.8 µM.

Compound `Cc1ccc(-n2[se]c3ccccc3c2=O)cc1C` returned an IC50 in series [1] of more than 10 µM. This compound also displayed an EC50 in the series on SARS-CoV-2 [2] of 12.2 µM.

`COc1cccc(-n2[se]c3ccccc3c2=O)c1` registered an IC50 in series [1] of more than 10 µM. In addition, the EC50 with SARS-CoV-2 [2] is 15.1 µM.

On to `COc1ccc(Cl)cc1-n1[se]c2ccccc2c1=O`, for which, in [1], the IC50 is more than 10 µM. Moreover, in the series on SARS-CoV-2 [2], the EC50 was more than 20 µM.

In [1], `O=c1c2ccccc2[se]n1-c1c(F)cccc1F` displayed an IC50 of 2.09 µM. For the same compound, in the series with SARS-CoV-2 [2], the EC50 was more than 20 µM.

Compound `O=c1c2ccccc2[se]n1-c1cc(Cl)cc(Cl)c1` displayed an IC50 in series [1] of 0.64 µM. In the series with SARS-CoV-2 [2], this compound gave an EC50 of 18.2 µM. This compound also showed a logD in series [5] of 1.67. Besides, the inhibition result in series [11] was “Active”.

Turning to `O=c1c2ccccc2[se]n1-c1ccc(C(F)(F)F)cc1`, the IC50 in [1] stood at 0.9 µM. Also, the figures for the EC50 in the series on SARS-CoV-2 [2] and in the series with SARS-CoV-2 [10] were 11.2 µM and 2.8 µM, respectively. The same compound yielded a pH-dependent lipophilicity (logD) in series [5] of 3.19. Also, the inhibition in [7] is 86%; in series [8], 48%; in [12], 43%; in series [14] it was 44%. For the same compound, the inhibition entry in series [13] is “Active”.

Turning to `O=c1c2ccccc2[se]n1-c1ccc(Cl)cc1OC(F)(F)F`, in series [1], the IC50 is more than 10 µM. In the series with SARS-CoV-2 [2], the EC50 is more than 20 µM.

Compound `COc1ccc2c(=O)n(-c3ccccc3)[se]c2c1` gave an IC50 in [1] of 6.4 µM. The same compound came in with a concentration giving a half-maximal response (EC50) in the series with SARS-CoV-2 [2] of 11.2 µM.

On to `O=c1c2ccccc2[se]n1-c1ccccc1` [EBSELEN], for which the EC50 in the series on SARS-CoV-2 [2] is more than 20 µM; in the series on SARS-CoV-2 [10] it was 5 µM. In [5], the logD came to 0.92. Besides, the inhibition in [6] is 65%; in series [7] it was 89%; in series [8], 91%. In addition, the inhibition entry in [13] was “Active”.

In the case of `COc1ccc(Cn2[se]c3ccccc3c2=O)cc1`, the IC50 in [1] was more than 10 µM. In addition, the EC50 in the series on SARS-CoV-2 [2] was more than 20 µM.

On to `COc1cc(F)ccc1-n1[se]c2ccccc2c1=O`, for which, in [1], the IC50 came out at 1.8 µM. The EC50 in the series with SARS-CoV-2 [2] is more than 20 µM.

The compound `CCCCCn1[se]c2ccccc2c1=O` yielded a half-inhibitory concentration (IC50) in [1] of more than 10 µM. The compound further came in with an EC50 with SARS-CoV-2 [2] of more than 20 µM.

Turning to `COc1ccc(-n2[se]c3ccccc3c2=O)cc1`, the IC50 in series [1] was 1.25 µM. The same compound showed an EC50 with SARS-CoV-2 [2] of 1.7 µM.

The compound `CCCCCCCCn1[se]c2ccccc2c1=O` returned an IC50 in series [1] of 2.69 µM. Also, the EC50 in the series with SARS-CoV-2 [2] is more than 20 µM.

`O=c1c2ccccc2[se]n1-c1cccc(Cl)c1` returned an IC50 in [1] of 0.68 µM. The compound also had an EC50 in the series with SARS-CoV-2 [2] of 17.4 µM. The logD in series [5] was determined as 1.53. Also, in series [11], the inhibition result was “Active”.

As to `O=c1c2ccccc2[se]n1-c1cccc(C(F)(F)F)c1`, the IC50 in series [1] came out at 2.77 µM. The EC50 in the series with SARS-CoV-2 [2] was 0.8 µM; in the series with SARS-CoV-2 [10], 1.3 µM. In series [5], this compound had a logD of 3.18. In [15], the Activity entry is “Non-Toxic”.

In the case of `Cc1ccc(-n2[se]c3ccccc3c2=O)cc1`, in series [1], the IC50 stood at 2.29 µM. The compound further came in with an EC50 in the series with SARS-CoV-2 [2] of 15.4 µM.

As for `COc1ccc(F)cc1-n1[se]c2ccccc2c1=O`, the IC50 in series [1] was found to be 3.3 µM. Also, in the series on SARS-CoV-2 [2], the EC50 was more than 20 µM.

Compound `O=c1c2ccccc2[se]n1-c1ccc(Br)cc1` registered an IC50 in [1] of 2.77 µM. In addition, the EC50 came out at 5.2 µM with SARS-CoV-2 [2] and 15.7 µM with SARS-CoV-2 [10]. The compound also yielded a logD in series [5] of 1.46.

In series [1], `CCCCCCCn1[se]c2ccccc2c1=O` yielded a 50% inhibitory concentration (IC50) of 5.56 µM. The compound also had an EC50 in the series with SARS-CoV-2 [2] of 17.3 µM.

In series [1], `O=c1c2ccccc2[se]n1-c1ccc(F)cc1C(F)(F)F` yielded an IC50 of more than 10 µM. For the same compound, the EC50 in the series on SARS-CoV-2 [2] is more than 20 µM.

In series [1], `Cc1ccccc1-n1[se]c2ccccc2c1=O` displayed an IC50 of 7.43 µM. This compound also displayed an EC50 with SARS-CoV-2 [2] of 20.7 µM.

In series [1], `CCc1ccc(-n2[se]c3ccccc3c2=O)cc1` returned an IC50 of 6.18 µM. The EC50 with SARS-CoV-2 [2] was found to be 6.5 µM; in the series on SARS-CoV-2 [10] it was 8.8 µM. The same compound returned a logD in series [5] of 2.87.

In series [1], `O=c1c2ccccc2[se]n1-c1ccc(F)cc1` registered an IC50 of 2.78 µM. A half-maximal response in the series with SARS-CoV-2 [2] (EC50) required 16.7 µM.

`COc1ccc(Cn2[se]c3ccccc3c2=O)c(OC)c1` yielded an IC50 in [1] of 0.61 µM. In the series with SARS-CoV-2 [2], this compound registered an EC50 of 26.5 µM. For the same compound, the pH-dependent lipophilicity (logD) in series [5] is recorded as 0.85. Also, the inhibition result in [11] is “Active”.

On to `O=c1c2ccccc2[se]n1-c1ccccc1F`, for which, in series [1], the 50% inhibitory concentration (IC50) was more than 10 µM. The compound also returned an EC50 in the series on SARS-CoV-2 [2] of more than 20 µM.

The compound `O=c1c2ccccc2[se]n1Cc1ccc(C(F)(F)F)cc1` showed a concentration for half-maximal inhibition (IC50) in series [1] of more than 10 µM. This compound registered an EC50 in the series with SARS-CoV-2 [2] of 11.2 µM.
